This test has as its target recombinant Human Phosphodiesterase B2 (PDE4B2) (Homo sapiens, UniProt Q07343). Briefly: Human Phosphodiesterase B2 Radiometric Assay (yttrium silicate SPA beads, [3H]cyclic AMP). The settings on record: recombinant human PDE4B2, radiometric SPA assay, 8 nM [3H]cyclic AMP; read-out: PDE4B2 pIC50 (converted). It is filed as biochemical. In outline: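 Compounds were preincubated 30 min at 30 °C with 0.1 mg/mL PDE4B2 in 50 mM HEPES pH 7.5, 8.3 mM MgCl2, 1.7 mM EGTA, 0.01% Brij 35. Then 8 nM [3H]cAMP was added for 20 min, stopped with yttrium silicate SPA beads plus 18 mM ZnSO4 capturing product 5′AMP; pIC50 by curve fitting.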
Chain of recombinant Human Phosphodiesterase B2 (PDE4B2) (Q07343 1-564 isoform Q07343-2): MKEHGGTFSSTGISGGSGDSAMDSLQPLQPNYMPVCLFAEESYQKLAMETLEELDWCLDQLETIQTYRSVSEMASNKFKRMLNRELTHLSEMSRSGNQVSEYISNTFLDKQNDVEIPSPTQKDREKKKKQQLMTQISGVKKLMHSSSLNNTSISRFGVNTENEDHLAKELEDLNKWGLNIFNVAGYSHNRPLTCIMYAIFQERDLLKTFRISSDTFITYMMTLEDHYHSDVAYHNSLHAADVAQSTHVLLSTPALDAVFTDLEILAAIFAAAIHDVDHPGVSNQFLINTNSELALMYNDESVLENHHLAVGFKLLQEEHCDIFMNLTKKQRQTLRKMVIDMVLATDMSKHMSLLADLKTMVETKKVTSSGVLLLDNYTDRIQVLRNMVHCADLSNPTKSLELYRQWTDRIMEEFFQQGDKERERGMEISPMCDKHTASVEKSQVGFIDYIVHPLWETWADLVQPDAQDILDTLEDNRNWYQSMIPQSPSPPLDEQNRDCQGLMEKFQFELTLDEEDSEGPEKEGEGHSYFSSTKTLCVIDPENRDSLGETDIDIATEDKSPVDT
On to `O=c1c2cc(F)cnc2n(-c2cccc(-c3ccc(O)cc3CN3CCOCC3)c2)c(=O)n1[C@H]1CC[C@@H](NCc2cc(Cl)ccc2O)CC1` [Example 250, 3-{cis-4-[(5-Chloro-2-hydroxybenzyl)amino]cyclohexyl}-6-fluoro-1-[4′-hydroxy-2′-(morpholin-4-ylmethyl)biphenyl-3-yl]pyrido[2,3-d]pyrimidine-2,4(1H,3H)-dione], for which the IC50 was 0.2 nM.

As to `CN1CCN(Cc2ccc(-c3cccc(-n4c(=O)n([C@H]5CC[C@@H](NC(=O)c6cn7cc(F)ccc7n6)CC5)c(=O)c5cc(F)cnc54)c3)cc2)CC1` [Example 269, 6-Fluoro-N-{cis-4-[6-fluoro-1-{4′-[(4-methylpiperazin-1-yl)methyl]biphenyl-3-yl}-2,4-dioxo-1,4-dihydropyrido[2,3-d]pyrimidin-3(2H)-yl]cyclohexyl}imidazo[1,2-a]pyridine-2-carboxamide], the IC50 was 0.02 nM.

For the molecule `Cc1cc(C(=O)N[C@H]2CC[C@@H](n3c(=O)c4cc(F)cnc4n(-c4cccc(-c5ccc(CN6CCC(CO)CC6)cc5)c4)c3=O)CC2)nn1C` [Example 116, N-{cis-4-[6-fluoro-1-(4′-{[4-(hydroxymethyl)piperidin-1-yl]methyl}biphenyl-3-yl)-2,4-dioxo-1,4-dihydropyrido[2,3-d]pyrimidin-3(2H)-yl]cyclohexyl}-1,5-dimethyl-1H-pyrazole-3-carboxamide], the IC50 is 0.0501 nM.

On to `CN1CCCN(Cc2ccc(-c3cccc(-n4c(=O)n([C@H]5CC[C@@H](NC(=O)CCN6CCCCC6)CC5)c(=O)c5cc(F)cnc54)c3)cc2)CC1` [Example 293, N-{cis-4-[6-fluoro-1-{4′-[(4-methyl-1,4-diazepan-1-yl)methyl]biphenyl-3-yl}-2,4-dioxo-1,4-dihydropyrido[2,3-d]pyrimidin-3(2H)-yl]cyclohexyl}-3-piperidin-1-ylpropanamide], for which the IC50 was 2 nM.

In the case of `CN(C)CCN(C)Cc1ccc(-c2cccc(-n3c(=O)n([C@H]4CC[C@@H](NC(=O)c5cn6c(n5)CCCC6)CC4)c(=O)c4cc(F)cnc43)c2)cc1` [Example 133, N-{cis-4-[1-(4′-{[[2-(dimethylamino)ethyl](methyl)amino]methyl}biphenyl-3-yl)-6-fluoro-2,4-dioxo-1,4-dihydropyrido[2,3-d]pyrimidin-3(2H)-yl]cyclohexyl}-5,6,7,8-tetrahydroimidazo[1,2-a]pyridine-2-carboxamide], the IC50 was 0.01 nM.

Consider `CCCCN(C)Cc1ccc(-c2cccc(-n3c(=O)n([C@H]4CC[C@@H](NC(=O)c5cn6c(n5)CCCC6)CC4)c(=O)c4cc(F)cnc43)c2)cc1` [Example 132, N-{cis-4-[1-(4′-{[butyl(methyl)amino]methyl}biphenyl-3-yl)-6-fluoro-2,4-dioxo-1,4-dihydropyrido[2,3-d]pyrimidin-3(2H)-yl]cyclohexyl}-5,6,7,8-tetrahydroimidazo[1,2-a]pyridine-2-carboxamide], for which the IC50 was 0.0251 nM.

Regarding `O=C(N[C@H]1CC[C@@H](n2c(=O)c3cc(F)cnc3n(-c3cccc(-c4ccccc4)c3)c2=O)CC1)c1cn2cc(F)ccc2n1` [Example 1, N-[cis-4-(1-biphenyl-3-yl-6-fluoro-2,4-dioxo-1,4-dihydropyrido[2,3-d]pyrimidin-3(2H)-yl)cyclohexyl]-6-fluoroimidazo[1,2-c]pyridine-2-carboxamide], the IC50 is 0.0251 nM.

Consider `O=C(N[C@H]1CC[C@@H](n2c(=O)c3cc(F)cnc3n(-c3cccc(-c4ccc(OCCN5CCCC5)cc4)c3)c2=O)CC1)c1cn2cc(F)ccc2n1` [Example 79, 6-fluoro-N-{cis-4-[6-fluoro-2,4-dioxo-1-[4′-(2-pyrrolidin-1-ylethoxy)biphenyl-3-yl]-1,4-dihydropyrido[2,3-d]pyrimidin-3(2H)-yl]cyclohexyl}imidazo[1,2-a]pyridine-2-carboxamide], for which the IC50 was 0.02 nM.

Regarding `CN1CCCN(Cc2ccc(-c3cccc(-n4c(=O)n([C@H]5CC[C@@H](NC(=O)[C@@H](N)Cc6ccccc6)CC5)c(=O)c5cc(F)cnc54)c3)cc2)CC1` [Example 312, N-{cis-4-[6-fluoro-1-{4′-[(4-methyl-1,4-diazepan-1-yl)methyl]biphenyl-3-yl}-2,4-dioxo-1,4-dihydropyrido[2,3-d]pyrimidin-3(2H)-yl]cyclohexyl}-L-phenylalaninamide], the IC50 was 0.2 nM.

Regarding `CC(C)(C)OC(=O)NCc1cccc(-c2cccc(-n3c(=O)n([C@H]4CC[C@@H](NC(=O)c5cn6cc(F)ccc6n5)CC4)c(=O)c4cc(F)cnc43)c2)c1` [Example 18, tert-butyl ({3′-[6-fluoro-3-(cis-4-{[(6-fluoroimidazo[1,2-a]pyridin-2-yl)carbonyl]amino}cyclohexyl)-2,4-dioxo-3,4-dihydropyrido[2,3-d]pyrimidin-1(2H)-yl]biphenyl-3-yl}methyl)carbamate.], the IC50 is 0.0631 nM.

Regarding `O=C(N[C@H]1CC[C@@H](n2c(=O)c3cc(F)cnc3n(-c3cccc(-c4ccc(CO)cc4)c3)c2=O)CC1)c1cn2cc(F)ccc2n1` [Example 25, 6-fluoro-N-{cis-4-[6-fluoro-1-[4′-(hydroxymethyl)biphenyl-3-yl]-2,4-dioxo-1,4-dihydropyrido[2,3-d]pyrimidin-3(2H)-yl]cyclohexyl}imidazo[1,2-a]pyridine-2-carboxamide.], the IC50 was 0.0251 nM.

`O=C(N[C@H]1CC[C@@H](n2c(=O)c3cc(F)cnc3n(-c3ccc4c(cnn4Cc4ccccc4)c3)c2=O)CC1)c1cn2cc(F)ccc2n1` [Example 39, N-{cis-4-[1-(1-benzyl-1H-indazol-5-yl)-6-fluoro-2,4-dioxo-1,4-dihydropyrido[2,3-d]pyrimidin-3 (2H)-yl]cyclohexyl}-6-fluoroimidazo[1,2-a]pyridine-2-carboxamide]: the IC50 is 10 nM.

In the case of `O=C(N[C@H]1CC[C@@H](n2c(=O)c3cc(F)cnc3n(-c3cccc(-c4cccc(CN5CCOCC5)c4)c3)c2=O)CC1)c1cn2cc(F)ccc2n1` [Example 13, 6-fluoro-N-{cis-4-[6-fluoro-1-[3′-(morpholin-4-ylmethyl)biphenyl-3-yl]-2,4-dioxo-1,4-dihydropyrido[2,3-d]pyrimidin-3(2H)-yl]cyclohexyl}imidazo[1,2-a]pyridine-2-carboxamide.], the IC50 was 0.0631 nM.

With `CCCNC1(C(=O)N[C@H]2CC[C@@H](n3c(=O)c4cc(F)cnc4n(-c4cccc(-c5ccccc5CN5CCOCC5)c4)c3=O)CC2)CCCC1` [Example 275, N-{cis-4-[6-Fluoro-1-[2′-(morpholin-4-ylmethyl)biphenyl-3-yl]-2,4-dioxo-1,4-dihydropyrido[2,3-d]pyrimidin-3(2H)-yl]cyclohexyl}-1-(propylamino)cyclopentanecarboxamide], the IC50 was 3.98 nM.

For the molecule `CCOCCNCc1ccc(-c2cccc(-n3c(=O)n([C@H]4CC[C@@H](NC(=O)c5cn6c(n5)CCCC6)CC4)c(=O)c4cc(F)cnc43)c2)cc1` [Example 123, N-{cis-4-[1-(4′-{[(2-ethoxyethyl)amino]methyl}biphenyl-3-yl)-6-fluoro-2,4-dioxo-1,4-dihydropyrido[2,3-d]pyrimidin-3(2H)-yl]cyclohexyl}-5,6,7,8-tetrahydroimidazo[1,2-a]pyridine-2-carboxamide], the IC50 is 0.0398 nM.

For the molecule `CC(C)N1CCN(Cc2ccc(-c3cccc(-n4c(=O)n([C@H]5CC[C@@H](NCc6c(C(F)(F)F)nn(C)c6Cl)CC5)c(=O)c5cc(F)cnc54)c3)cc2)CC1` [Example 262, 3-[cis-4-({[5-chloro-1-methyl-3-(trifluoromethyl)-1H-pyrazol-4-yl]methyl}amino)cyclohexyl]-6-fluoro-1-{4′-[(4-isopropyl-piperazin-1-yl}methyl]biphenyl-3-yl}pyrido[2,3-d]pyrimidine-2,4(1H,3H)-dione], the IC50 was 0.794 nM.

Take `O=c1c2cc(F)cnc2n(-c2cccc(-c3ccc(O)cc3CN3CCCOCC3)c2)c(=O)n1[C@H]1CC[C@@H](NCc2cn3cc(F)ccc3n2)CC1` [Example 254, 6-Fluoro-3-(cis-4-{[(6-fluoroimidazo[1,2-a]pyridin-2-yl)methyl]amino}cyclohexyl)-1-[4′-hydroxy-2′-(1,4-oxazepan-4-ylmethyl)biphenyl-3-yl]pyrido[2,3-d]pyrimidine-2,4(1H,3H)-dione]: the IC50 is 0.0316 nM.

Consider `O=c1c2cc(F)cnc2n(-c2cccc(-c3ccc(O)cc3CN3CCOCC3)c2)c(=O)n1[C@H]1CC[C@@H](NCc2cn3cc(F)ccc3n2)CC1` [Example 246], for which the IC50 is 0.02 nM.

On to `CN(C)C1(C(=O)N[C@H]2CC[C@@H](n3c(=O)c4cc(F)cnc4n(-c4cccc(-c5ccc(CN6CCN(CCO)CC6)cc5)c4)c3=O)CC2)CC1` [Example 211, 1-(dimethylamino)-N-{cis-4-[6-fluoro-1-(4′-{[4-(2-hydroxyethyl)piperazin-1-yl]methyl}biphenyl-3-yl)-2,4-dioxo-1,4-dihydropyrido[2,3-d]pyrimidin-3(2H)-yl]cyclohexyl}cyclopropanecarboxamide], for which the IC50 was 0.0158 nM.

As for `CC(=O)N[C@H]1CC[C@@H](n2c(=O)c3cc(F)cnc3n(-c3cccc(-c4ccc(CN5CCN(C(C)C)CC5)cc4)c3)c2=O)CC1` [Example 232, N-{cis-4-[6-Fluoro-1-{4′-[(4-isopropylpiperazin-1-yl)methyl]biphenyl-3-yl}-2,4-dioxo-1,4-dihydropyrido[2,3-d]pyrimidin-3(2H)-yl]cyclohexyl}acetamide], the IC50 was 0.251 nM.

As to `Cc1cccc(C(=O)N[C@H]2CC[C@@H](n3c(=O)c4cc(F)cnc4n(-c4cccc(-c5ccc(CN6CCCNCC6)cc5)c4)c3=O)CC2)n1` [Example 356, N-{cis-4-[1-[4′-(1,4-diazepan-1-ylmethyl)biphenyl-3-yl]-6-fluoro-2,4-dioxo-1,4-dihydropyrido[2,3-d]pyrimidin-3(2H)-yl]cyclohexyl}-6-methylpyridine-2-carboxamide], the IC50 is 0.0631 nM.
